Experimental data published in patent US10807948B2, “Aromatic compounds and uses thereof” (PELOTON THERAPEUTICS, INC., priority 2015, dated 2020).
Entries after “also recorded” stand apart in the source; their conditions may differ.

Tests used:
[1] = molecular target: T1, HIF-2α HIS TAG-PASB Domain (Homo sapiens, UniProt Q99814); experiment: HIF-2α Scintillation Proximity Assay (SPA); type: binding; conditions: displacement of tritiated probe from HIF-2α PASB domain
T1 construct: 100 nM HIF-2α HIS TAG-PASB Domain
T1 sequence (Q99814 239-348): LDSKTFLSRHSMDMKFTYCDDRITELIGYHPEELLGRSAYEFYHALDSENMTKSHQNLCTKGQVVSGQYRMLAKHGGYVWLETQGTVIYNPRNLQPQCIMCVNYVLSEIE
Procedure: The total assay volume was about 100 μL in the following configuration: 2 μL compound in 100% DMSO, 88 μL buffer with protein and probe and 10 μL of SPA beads. […] The percent inhibition was determined and IC50 values were calculated using the Dotmatics system based on the following equation: % inhibition=[(high control−sample)/(high control−low control)]×100.

[2] = test system: 786-O-Hif-Luc cells; experiment: Luciferase Assay; type: cell-based; conditions: about 24 hours
Procedure: 786-O-Hif-Luc single clone cells were obtained by infecting 786-O cells (ATCC® CRL-1932™) with commercial lentivirus that delivers a luciferase gene driven by multiple HIF responsive elements (Cignal Lenti HIF Reporter (luc): CLS-007L, Qiagen) at Multiplicity of Infection (MOI) of 25 for 24 hours. […] A pool of infected cells were then selected against 2 μg/mL of puromycin (P8833, Sigma) for 10 days followed by limited dilution to select single clones. […] For the luciferase assay, about 7500 786-O-Hif-Luc cells in 90 μL growth medium were seeded into each well of a 96-well white opaque plate (08-771-26, Fisher scientific) a day before treatment with the layout presented in FIG. 5.
Each concentration was tested in triplicate. After about 24 hours, luciferase activity was determined using ONE-Glo Luciferase Assay Reagent (E6110, Promega) following the manufacturer's recommended procedure. EC50 were calculated using Dotmatics software.

[3] = test system: renal cell carcinoma 786-O xenograft; experiment: In vivo efficacy study, 786-O xenograft; design: species or system SCID/Biege mouse; conditions: for Tumor size (mm^3) Mean ± SEM: after 28 days of dosing
[4] = test system: renal cell carcinoma 786-O xenograft; experiment: In vivo PK/PD study: mRNA levels of genes in tumor by qRT-PCR; design: species or system SCID/Biege mice; conditions: 3 mg/kg oral gavage, six times at 12 hour intervals; 12 hours post last dose
Procedure: (§1) About 5×10^6 renal cell carcinoma 786-O tumor cells (ATCC® CRL-1932™, VHL and HIF-1α null cell line) in PBS and Matrigel (1:1 in volume) were injected subcutaneously at the right flanks of SCID/Biege mice at 6-7 weeks of age for xenograft development. When the xenografts reached about 400 mm^3 in size, the tumor bearing mice were randomly divided into 2 groups (n=3). Plasma was collected prior to treatment by retro-orbital bleeding. The animals were treated with either vehicle or Compound 95 at 3 mg/kg by oral gavage (six times at 12 hour intervals). All animals were sacrificed at 12 hours post last dose. Tumor, kidney, and plasma samples were collected from each animal. Total RNA was extracted from the tumors and kidneys. The mRNA levels of several genes were determined by qRT-PCR (FIG. 1).
Total RNA was extracted from the tumors, and the expressions of putative HIF-1α and HIF-2α regulated genes were determined by qRT-PCR.

[5] = test system: renal cell carcinoma 786-O xenograft; experiment: In vivo PK/PD study: human VEGFA in plasma by ELISA; design: species or system SCID/Biege mice; conditions: 3 mg/kg oral gavage, six times at 12 hour intervals
Procedure: as §1
The level of human VEGFA was determined by ELISA assay.

[6] = test system: 786-O cells; experiment: VEGF ELISA Assay; type: cell-based; conditions: Homo sapiens, 786-0, VEGF concentration in cell culture medium
Procedure: About 7500 786-0 cells in 180 μL of growth medium were seeded into each well of a 96-well, white, clear bottom plate (07-200-566, Fisher Scientific) on day one in the layout presented in FIG. 3.
Each concentration was plated in duplicate. About 20 hours later, medium was removed by suction and each well was supplied with 180 μL of growth medium. About 20 μL freshly-made 10× compound stocks were added to each well. […] The EC50 was calculated by GraphPad Prism using the dose-response-inhibition (four parameter) equation. The cell-seeded plate was then subjected to CellTiter-Glo luminescence cell viability assay (Promega) by adding 50 μL of Celltiter Glo reagent into each well and shaking the plate for 8 minutes at 550 rpm (Thermomixer R, Eppendorf) then the luminescence signal immediately read in a plate reader (3 second delay, 0.5 second/well integration time, Synergy 2 multi Detection Microplate reader).

SMILES	IC50 [1] [nM]	EC50 [2] [nM]	other results
CS(=O)(=O)c1ccc(OC2CC(F)(F)C2)c2c1[C@H](O)[C@H](F)[C@@H]2F (racemic) [Compound 98, (racemic)-4-(3,3-difluorocyclobutoxy)-2,3-difluoro-7-(methylsulfonyl)-2,3-dihydro-1H-inden-1-ol]	< 50		
O=S(=O)(CF)c1ccc(OC2CC(F)(F)C2)c2c1[C@H](O)[C@H](F)[C@@H]2F (racemic) [Compound 99, (racemic)-4-(3,3-difluorocyclobutoxy)-2,3-difluoro-7-((fluoromethyl)sulfonyl)-2,3-dihydro-1H-inden-1-ol]	< 50		
N#Cc1cncc(-c2ccc(S(=O)(=O)C(F)(F)F)c3c2CC(F)(F)C3O)c1 (stereo not drawn) [Compound 91]	> 1000	> 1000	
O=S(=O)(c1ccc(OCC2(F)COC2)c2c1[C@H](O)C(F)(F)C2)C(F)(F)F [Compound 94, (S)-2,2-difluoro-4-((3-fluorooxetan-3-yl)methoxy)-7-((trifluoromethyl)sulfonyl)-2,3-dihydro-1H-inden-1-ol]		< 50	
CS(=O)(=O)c1ccc(OC2CC(F)(F)C2)c2c1[C@H](O)C(F)(F)[C@@H]2F [Compound 95, (1S,3R)-4-(3,3-difluorocyclobutoxy)-2,2,3-trifluoro-7-(methylsulfonyl)-2,3-dihydro-1H-inden-1-ol]			Tumor size (mm^3) Mean ± SEM ([3]; 1 mg/kg QD): 525.72 mm^3; Tumor size (mm^3) Mean ± SEM ([3]; 3 mg/kg QD): 154.52 mm^3; Tumor size (mm^3) Mean ± SEM ([3]; 10 mg/kg QD): 89.45 mm^3; effect on tumor growth / tumor sizes ([3]; 1, 3 and 10 mg/kg QD for 28 days, single agent): statistically significant reduction of tumor sizes for all treatment groups; also recorded: tumor growth inhibition and regression; CCND1 mRNA level in tumor [4]: significant reduction; also recorded: reduced; GLUT1 mRNA level in tumor [4]: significant reduction; also recorded: reduced; PAI-1 mRNA level in tumor [4]: significant reduction; also recorded: reduced; PGK1 mRNA level in tumor (HIF-1α specific target gene) [4]: no significant change; also recorded: no significant effect; VEGFA mRNA level in tumor [4]: significant reduction; also recorded: reduced; human VEGFA plasma level [5]: significant reduction; also recorded: reduced
O=S(=O)(CF)c1ccc(OC2CC(F)(F)C2)c2c1[C@H](O)C(F)(F)[C@@H]2F [Compound 97, (1S,3R)-4-(3,3-difluorocyclobutoxy)-2,2,3-trifluoro-7-((fluoromethyl)sulfonyl)-2,3-dihydro-1H-inden-1-ol]			EC50 [6]: < 50 nM
O[C@H]1c2c(C(F)(F)F)ccc(OC3CC(F)(F)C3)c2CC1(F)F [Compound 109]		< 50	EC50 [6]: < 50 nM
CCOc1ccc(S(=O)(=O)C(F)(F)F)c2c1CC(F)(F)C2O (stereo not drawn) [Compound 113]	50 to 249		
N#CC1(COc2ccc(S(=O)(=O)C(F)(F)F)c3c2CC(F)(F)C3O)CC1 (stereo not drawn) [Compound 142]	< 50		
CC1CC(Oc2ccc(S(=O)(=O)C(F)(F)F)c3c2CC(F)(F)C3O)CCO1 (stereo not drawn) [Compound 148]		< 50	
COC[C@@H](C)Oc1ccc(S(=O)(=O)C(F)(F)F)c2c1CC(F)(F)[C@H]2O [Compound 184]		< 50	
FC(F)COc1ccc(C(F)(F)F)c2c1CC(F)(F)C2F (stereo not drawn) [Compound 214]	> 1000		
OC1c2c(OCC(F)F)ccc(C(F)(F)F)c2C(F)C1(F)F (stereo not drawn) [Compound 215]	> 1000		
OC1c2c(C(F)(F)F)ccc(OCC(F)F)c2CC1F (stereo not drawn) [Compound 221]	50 to 249	50 to 249	
CO[C@H]1C[C@H](Oc2ccc(S(=O)(=O)C(F)(F)F)c3c2CC(F)(F)[C@H]3O)C1 [Compound 239]	< 50		
CS(=O)(=O)c1ccc(O[C@H]2C[C@H](F)C2)c2c1[C@H](O)C(F)(F)[C@@H]2F [Compound 261]		< 50	
CS(=O)(=O)c1ccc(OC2CCC2)c2c1[C@H](O)C(F)(F)[C@@H]2F [Compound 281]		50 to 249	
CS(=O)(=O)c1ccc(OCC2CC(F)(F)C2)c2c1[C@H](O)C(F)(F)[C@@H]2F [Compound 287]	< 50		
